In US9399042B2, “Method for the removal of subcutaneous fat accumulations by subcutaneous lipolysis by administering a combination of glycyrrhizic acid and soybean phospholipids” (Lichtblick GmbH, priority 2010, dated 2016):
“Also recorded” adds a separate entry of the source. Like-named read-outs stand apart in the source and are kept apart here.

What was measured:
3T3-L1 cells [1] = assay: Lipolysis assay (glycerol release) with differentiated 3T3-L1 cells; type: cell-based, murine; conditions: 10 μM, 4 hours, 3% BSA/PBS; positive control
Description: 3T3-L1 cells were stimulated by a hormone cocktail to adipogenesis and differentiated for another 8 days to mature adipocytes. […] The lipolytic activity was measured using a lipolysis assay, as described below: The cleavage of triglycerides into glycerol and the three fatty acids is known as lipolysis. This process is catalyzed primarily by the hormone-sensitive lipase and the adipose triglyceride lipase. Using a lipolysis assay the lipolytic activity of cells can be detected. This assay is based on the measurement of glycerol emerged during lipolysis, which is secreted by the cells into the medium. The glycerol is metabolized by enzymatic reactions to glycerol-1-phosphate and then to dihydroxy acetone phosphate. Thereby hydrogen peroxide is produced, which is quantified photometrically with a peroxidase stain reaction. In order to be able to make statements about the lipolytic action of substances, they are compared with the basal lipolysis activity of the cells and with the lipolysis stimulated by the beta-adrenergic receptor. Such a stimulation can be caused by isoproterenol. FIG. 7: Graphical picture of the analysis of the lipolysis assay (μg glycerol/μg DNA) with treated differentiated 3T3-L1 cells. 3T3-L1 were stimulated by a hormonal induction cocktail to adipogenesis and then differentiated for 8 days. […]

[2] = test system: Adipose-Derived Stem Cells (ADSC); assay: Propidium iodide (PI) staining of treated differentiated ADSCs (CLSM); type: cell-based, human
Description: Further analysis of the cell-damaging effect of sodium deoxycholate on ADSCs was performed by PI staining of the treated cells and subsequent analysis with CLSM. The differentiated, mature adipocytes were treated with: • 0.05 mg/ml, 0.1 mg/ml and 0.5 mg/ml sodium deoxycholate for 4 hours.
Then the cells were incubated in a medium containing 5 µg/ml propidium iodide for 5 minutes. This was followed by microscopic analysis with CLSM at a 63-fold magnification (FIG. 3c).
(§1) After the incubation period (4 hours) the adipocytes were stained with 5 μm/ml PI and analyzed with CLSM. In the upper PI-row (a-e) fluorescence images of PI-stained cells are shown. In the lower PK-row (a-e) the corresponding phase contrast images are presented with the overlapping fluorescence images over one another.
A further analysis of a cell-damaging effect of phosphatidyl choline on ADSCs was performed by PI staining of the treated cells and subsequent analysis with CLSM. The differentiated, mature adipocytes were treated with: • 5 mg/ml, 10 mg/ml and 15 mg/ml phosphatidyl choline for 4 hours.
Then the cells were incubated in a medium containing 5 μg/ml propidium iodide for 5 minutes. This was followed by microscopic analysis with CLSM at a 63-fold magnification (FIG. 4c).
as §1, with “μg/ml” for “μm/ml”, “another (Size bar=20 μm).” for “another.”

3T3-L1 cells [3] = assay: Membrane damaging / cytotoxic effect on differentiated 3T3-L1 cells (light microscopy, CLSM phase contrast); type: cell-based, murine; conditions: for In vitro Cell damaging causing concentration: single agent
Description: In order to test in vitro the effects of phosphatidyl choline on the membrane integrity and stability, differentiated 3T3-L1 cells were incubated with different concentrations of phosphatidyl choline for 4 and 24 hours and then analyzed by light microscopy.
As a model system, the murine preadipocyte cell line 3T3-L1 was used for the studies. 3T3-L1 cells were stimulated to adipogenesis by a conventional hormone cocktail (corticosterone, isobutylmethylxanthine, indomethacin, insulin) and differentiated for another 8 days to mature adipocytes.
The mature adipocytes of the 3T3-L1 cells were treated with various concentrations of phosphatidyl choline.
First, a phosphatidyl choline stock solution was prepared: • 500 mg/ml phosphatidyl choline dissolved in 70% ethanol
The used concentrations of phosphatidyl choline were: • 1 mg/ml, 5 mg/ml, 10 mg/ml, 15 mg/ml, 20 mg/ml
FIG. 1a: Phase contrast images of treated differentiated 3T3-L1 cells in 2D cell culture. The treatment was as follows: • (a) control=untreated cells in differentiation medium • (b) 1 mg/ml of phosphatidyl choline after 24 hours • (b) 5 mg/ml of phosphatidyl choline after 24 hours • (d) 10 mg/ml of phosphatidyl choline after 24 hours • (e) 15 mg/ml of phosphatidyl choline after 24 hours • (f) 20 mg/ml of phosphatidyl choline after 24 hours • (Size bar=100 μm).
FIG. 1b: Phase contrast images using a CLSM at a 63-fold magnification of treated differentiated 3T3-L1 cells in 2D cell culture. The treatment was as follows: • (a) control=untreated cells in differentiation medium after 4 hours • (b) 1 mg/ml of phosphatidyl choline after 4 hours • (c) 5 mg/ml of phosphatidyl choline after 4 hours • (d) 10 mg/ml of phosphatidyl choline after 4 hours • (Size bar=20 μm).
As a model system the murine preadipocyte cell line 3T3-L1 was used for the studies. 3T3-L1 cells were stimulated by a hormone cocktail (corticosterone, isobutylmethylxanthine, indomethacin, insulin) to adipogenesis and differentiated for another 8 days to mature adipocytes.
The mature adipocytes of 3T3-L1 cells were incubated with various concentrations of phosphatidyl choline between 0.1 mg/ml and 50 mg/ml. The phosphatidyl choline was combined with 2-20 mg/ml glycyrrhizinate and 18-180 mg/ml maltose.
The incubation of mature 3T3-L1 cells was performed for a duration of 4 hours with the substances combination.
Then the treated cells were examined at a 63-fold magnification by light microscopy for a membrane destabilizing and cytotoxic effect.
FIG. 9: Phase contrast images of treated differentiated 3T3-L1 cells. 3T3-L1 were stimulated by a hormonal induction cocktail to adipogenesis and then differentiated for 8 days. The mature adipocytes were treated for 24 hours with phosphatidyl choline and sodium deoxycholate from Lipostabil® with the following concentrations: • (a) untreated cells in differentiation medium, • (b) 0.01 mg/ml phosphatidyl choline+0.005 mg/ml Na-deoxycholate, • (c) 0.1 mg/ml phosphatidyl choline+0.05 mg/ml Na-deoxycholate, • (d) 0.25 mg/ml phosphatidyl choline+0.125 mg/ml Na-deoxycholate, • (e) 0.5 mg/ml phosphatidyl choline+0.25 mg/ml Na-deoxycholate, • (f) 1 mg/ml phosphatidyl choline+0.5 mg/ml Na-deoxycholate.
The analysis was done using the light microscope. Cells with damaged membrane or cell fragments are marked examplary with black arrows, while free lipid droplets are indicated by white arrows.

[4] = test system: Adipose-Derived Stem Cells (ADSC); assay: Membrane damaging effect on differentiated ADSCs (light microscopy, CLSM); type: cell-based, human; conditions: 4 hours
Text: The human subcutaneous adipose tissue can serve as a potential source of adult stem cells. These so-called “Adipose-Derived Stem Cells” (ADSC) are multipotent and may be differentiated by appropriate stimuli into various cell types, e.g. osteoblasts, chondrocytes, adipocytes. The isolation of ADSCs from human subcutaneous adipose tissue which is removed during plastic reductive surgery, is shown schematically in FIG. 2.
First the fat was washed with buffer to remove hematopoietic cells, and then crushed. The resulting pieces of fatty tissue were digested with collagenase. By centrifugation of the digested tissue the stromal-vascular fraction was separated and the floated mature adipocytes were discarded. The stromal-vascular fraction in the pellet is composed of a heterogeneous cell population of blood cells, fibroblasts, pericytes, endothelial cells and preadipocytes.
This cell population was transferred into a culture bottle with medium, wherein a portion of the cells adhered. By adding a suitable cocktail consisting of insulin, dexamethasone, indomethacin and isobutylmethylxanthine or consisting of insulin, cortisol, troglitazone, triiodothyronine and isobutylmethylxanthine the cells were stimulated for adipogenesis and an improved adipogenic differentiation was achieved.
The ADSCs of Example 4 were stimulated by a hormone cocktail (insulin, cortisol, troglitazone, triiodothyronine and isobutylmethylxanthine) to adipogenesis and then differentiated for another 21 days into mature adipocytes.
This was followed by a treatment with sodium deoxycholate. For this the following concentrations were used: • 0.01 mg/ml, 0.05 mg/ml, 0.075 mg/ml, 0.1 mg/ml and 0.5 mg/ml.
The incubation period was 4 hours.
This concentration range has been already proven to be effective in 3T3-L1. After the incubation period of 4 hours, the differentiated treated cells were subsequently viewed by light microscopy (FIG. 3a).
Additionally, ADSCs treated with sodium deoxycholate were examined with CLSM. The differentiated, mature adipocytes were treated with: • 0.01 mg/ml, 0.05 mg/ml and 0.1 mg/ml sodium deoxycholate for 4 hours.
This was followed by microscopic analysis with CLSM at a 63-fold magnification (FIG. 3b). […]

`CC(C)NCC(O)c1ccc(O)c(O)c1` (centres unmarked) [isoproterenol] was tested, and the “lipolytic activity compared to the basal level” value (3T3-L1 cells [1]) was “eight times the basal level”.

With Triton the “PI staining (membrane integrity)” value [2] was “red cells stained by PI”.

With sodium deoxycholate [Na-deoxycholate] the “PI staining (membrane integrity)” value ([2]; 0.05 mg/ml, 4 hours) was “no red-stained cells”, the “PI staining (membrane integrity)” value ([2]; 0.1 mg/ml, 4 hours) was “individual red-stained cells” and the “PI staining (membrane integrity)” value ([2]; 0.5 mg/ml, 4 hours) was “many and clearly red-stained cells”. The “PI staining (membrane integrity)” value ([2]; 5, 10 and 15 mg/ml, 4 hours) was “no red-stained cells”, the membrane damaging effect (3T3-L1 cells [3]; 0.05 mg/ml) was “membrane-damaging effects occurred” and the membrane damaging effect (3T3-L1 cells [3]; 0.5 mg/ml) was “highly toxic”. The “effect on the cell membrane” value (3T3-L1 cells [3]; 20 mg/ml) was “clear destruction of the cell membrane”, the “In vitro Cell damaging causing concentration” value (3T3-L1 cells [3]) was at least 0.05 mg/mL and the “In vitro Cell damaging causing concentration” value (3T3-L1 cells [3]; listed as Na Deoxycholate) was “from 0.05 mg/ml”. For the same compound, the “membrane damaging / cytotoxic effect” value ([4]; 0.01 mg/ml) was “no effect on the cells; also recorded: no cytotoxic effect”, the “membrane damaging / cytotoxic effect” value ([4]; 0.05 mg/ml) was “slight damages of the cell membrane” and the “membrane damaging / cytotoxic effect” value ([4]; 0.05 mg/ml, listed as Na-DC) was “injury”. For the same compound, the “membrane damaging / cytotoxic effect” value ([4]; 0.1 mg/ml, CLSM) was “strong membrane damage”, the “membrane damaging / cytotoxic effect” value ([4]; 0.5 mg/ml) was “significantly toxic effect on the cells” and the “membrane damaging / cytotoxic effect” value ([4]; 0.5 mg/ml, listed as Na-DC) was “dead”.
